Nine molecules from patent US11242337B2, “Compounds useful for treating gastrointestinal tract disorders” (Ardelyx, Inc., priority 2017, dated 2022) can be followed below.

The term IC50 denotes the concentration that inhibits the measured activity by half.

The target of assay [1] is T1, NHE3 (Homo sapiens, UniProt P48764).
T1 construct: expressed in transfected cells
T1 sequence (P48764 26-834): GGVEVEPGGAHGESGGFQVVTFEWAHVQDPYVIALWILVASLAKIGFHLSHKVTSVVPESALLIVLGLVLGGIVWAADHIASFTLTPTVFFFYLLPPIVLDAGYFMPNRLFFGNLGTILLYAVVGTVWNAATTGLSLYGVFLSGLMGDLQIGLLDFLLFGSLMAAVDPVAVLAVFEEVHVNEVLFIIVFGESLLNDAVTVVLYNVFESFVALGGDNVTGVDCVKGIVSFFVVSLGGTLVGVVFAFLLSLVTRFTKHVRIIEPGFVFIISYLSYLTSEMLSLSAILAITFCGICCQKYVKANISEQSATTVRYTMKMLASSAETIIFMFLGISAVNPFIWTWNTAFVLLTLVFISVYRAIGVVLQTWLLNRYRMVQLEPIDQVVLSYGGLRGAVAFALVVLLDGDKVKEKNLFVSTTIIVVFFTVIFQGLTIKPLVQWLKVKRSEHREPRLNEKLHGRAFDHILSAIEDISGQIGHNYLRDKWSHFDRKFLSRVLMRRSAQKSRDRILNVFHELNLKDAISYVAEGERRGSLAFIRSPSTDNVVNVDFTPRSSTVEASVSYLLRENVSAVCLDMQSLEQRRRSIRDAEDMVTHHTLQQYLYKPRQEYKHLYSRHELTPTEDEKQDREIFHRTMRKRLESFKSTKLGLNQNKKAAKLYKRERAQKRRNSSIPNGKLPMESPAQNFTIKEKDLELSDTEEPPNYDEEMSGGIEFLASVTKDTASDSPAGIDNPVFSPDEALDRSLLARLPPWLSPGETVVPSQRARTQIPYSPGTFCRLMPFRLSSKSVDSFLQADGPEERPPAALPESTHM
T1 sequence (Q99653 2-195 partner limits assumed): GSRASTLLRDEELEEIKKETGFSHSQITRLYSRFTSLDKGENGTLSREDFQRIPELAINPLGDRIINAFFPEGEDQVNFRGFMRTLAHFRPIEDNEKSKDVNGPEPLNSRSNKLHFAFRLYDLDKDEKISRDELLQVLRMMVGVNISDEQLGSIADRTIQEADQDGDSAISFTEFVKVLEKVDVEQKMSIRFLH
Description: Cell-based assay of NHE-3 activity (pre-incubation inhibition), human. To be noted: human Preincubation; for pIC50: 0-30 μM test compound. In a few lines: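 Activity read as initial rate of BCECF fluorescence ratio change per minute (ex 439/505, em 538 nm) following NH4Cl prepulse acid loading. Compound (0–30 μM) present during 10 min Na+-free acidification at room temperature; cells were PS120 fibroblasts stably co-expressing human NHE3 and NHERF2.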

The target in assay [2] is T1, NHE3. Description: Cell-based assay of NHE-3 activity (persistent inhibition), human. Particulars: human Persistence, 60 min incubation then washout. In a few lines:
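Persistent inhibition: compound (0-30 μM, 60 min, RT, NaCl-HEPES pH 7.4) removed before assay. Human NHE3/NHERF2 PS120 cells were then BCECF-loaded during NH4Cl pulse (30 min, 37 °C), acidified in Na+-free buffer, and Na+ added 10 min after washout; antiport measured as initial fluorescence-ratio change per minute.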

Take `N#Cc1cc(Cl)cc2c1C[C@H](N1C[C@@H]3C[C@H]1CN3)[C@H]2Oc1ccc(S(=O)(=O)N[C@H]2CCN(CCOCCNC(=O)NCCCCNC(=O)NCCOCCN3CC[C@H](NS(=O)(=O)c4ccc(O[C@H]5c6cc(Cl)cc(C#N)c6C[C@@H]5N5C[C@@H]6C[C@H]5CN6)cc4)C3)C2)cc1` [Example 130, 4-([(1S,2S)-2-[(1S,4S)-2,5-Diazabicyclo[2.2.1]heptan-2-yl]-6-chloro-4-cyano-2,3-dihydro-1H-inden-1-yl]oxy)-N—[(S)-1-(20-[(S)-3-[(4-([(1S,2S)-2-[(1S,4S)-2,5-diazabicyclo[2.2.1]heptan-2-yl]-6-chloro-4-cyano-2,3-dihydro-1H-inden-1-yl]oxy)phenyl]sulfonamido)pyrrolidin-1-yl]-7,14-dioxo-3,18-dioxa-6,8,13,15-tetraazaicosyl)pyrrolidin-3-yl]benzenesulfonamide; bis(trifluoroacetic acid)]: at NHE3 [1], the “% inhibition” value is given as “B (40-70%)” and the pIC50 result was “C (NHE3 pIC50 > 7)”. Further, at NHE3 [2], the “% inhibition” value is “C (>70%)” and the IC50 was 100 to 1000 nM.
The matching figures for `N#Cc1cc(Cl)cc2c1C[C@H](N1C[C@@H]3C[C@H]1CN3)[C@H]2Oc1ccc(S(=O)(=O)N[C@@H]2CCN(CCOCCNC(=O)NCCCCNC(=O)NCCOCCN3CC[C@@H](NS(=O)(=O)c4ccc(O[C@H]5c6cc(Cl)cc(C#N)c6C[C@@H]5N5C[C@@H]6C[C@H]5CN6)cc4)C3)C2)cc1` [Example 131, 4-([(1S,2S)-2-[(1S,4S)-2,5-Diazabicyclo[2.2.1]heptan-2-yl]-6-chloro-4-cyano-2,3-dihydro-1H-inden-1-yl]oxy)-N—[(R)-1-(20-[(R)-3-([4-([(1S,2S)-2-[(1S,4S)-2,5-diazabicyclo[2.2.1]heptan-2-yl]-6-chloro-4-cyano-2,3-dihydro-1H-inden-1-yl]oxy)phenyl]sulfonamido)pyrrolidin-1-yl]-7,14-dioxo-3,18-dioxa-6,8,13,15-tetraazaicosyl)pyrrolidin-3-yl]benzenesulfonamide; bis(trifluoroacetic acid)]: “C (>70%)”, “C (NHE3 pIC50 > 7)”, “C (>70%)” and 100 to 1000 nM.
As for `C[C@H]1CN([C@H]2Cc3c(C#N)cc(Cl)cc3[C@@H]2Oc2ccc(S(=O)(=O)N[C@H]3CCN(CCOCCNC(=O)NCCCCNC(=O)NCCOCCN4CC[C@H](NS(=O)(=O)c5ccc(O[C@H]6c7cc(Cl)cc(C#N)c7C[C@@H]6N6CCN[C@@H](C)C6)cc5)C4)C3)cc2)CCN1` [Example 134, 4-([(1S,2S)-6-Chloro-4-cyano-2-[(S)-3-methylpiperazin-1-yl]-2,3-dihydro-1H-inden-1-yl]oxy)-N—[(S)-1-(20-[(S)-3-([4-([(1S,2S)-6-chloro-4-cyano-2-[(S)-3-methylpiperazin-1-yl]-2,3-dihydro-1H-inden-1-yl]oxy)phenyl]sulfonamido)pyrrolidin-1-yl]-7,14-dioxo-3,18-dioxa-6,8,13,15-tetraazaicosyl)pyrrolidin-3-yl]benzenesulfonamide; bis(trifluoroacetic acid)], the “% inhibition” value on NHE3 [1] and at NHE3 [2] was “C (>70%)” in each case. Besides, the pIC50 entry on NHE3 [1] and against NHE3 [2] was “C (NHE3 pIC50 > 7)” throughout.
As to `C[C@H]1CN([C@H]2Cc3c(C#N)cc(Cl)cc3[C@@H]2Oc2ccc(S(=O)(=O)N[C@@H]3CCN(CCOCCNC(=O)NCCCCNC(=O)NCCOCCN4CC[C@@H](NS(=O)(=O)c5ccc(O[C@H]6c7cc(Cl)cc(C#N)c7C[C@@H]6N6CCN[C@@H](C)C6)cc5)C4)C3)cc2)CCN1` [Example 135], at NHE3 [1], the “% inhibition” value is reported as “C (>70%)” and the pIC50 entry is “C (NHE3 pIC50 > 7)”. Besides, on NHE3 [2], the “% inhibition” value is given as “C (>70%)” and the pIC50 result is reported as “C (NHE3 pIC50 > 7)”.
Consider `C[C@@H]1CN([C@H]2Cc3c(C#N)cc(Cl)cc3[C@@H]2Oc2ccc(S(=O)(=O)N[C@H]3CCN(CCOCCNC(=O)NCCCCNC(=O)NCCOCCN4CC[C@H](NS(=O)(=O)c5ccc(O[C@H]6c7cc(Cl)cc(C#N)c7C[C@@H]6N6C[C@@H](C)N[C@@H](C)C6)cc5)C4)C3)cc2)C[C@H](C)N1` [Example 136], for which, on NHE3 [1], the “% inhibition” value is on record as “C (>70%)” and the pIC50 result is reported as “C (NHE3 pIC50 > 7)”. Also, at NHE3 [2], the “% inhibition” value is reported as “C (>70%)” and the pIC50 result was “C (NHE3 pIC50 > 7)”.
In the case of `C[C@@H]1CN([C@H]2Cc3c(C#N)cc(Cl)cc3[C@@H]2Oc2ccc(S(=O)(=O)N[C@@H]3CCN(CCOCCNC(=O)NCCCCNC(=O)NCCOCCN4CC[C@@H](NS(=O)(=O)c5ccc(O[C@H]6c7cc(Cl)cc(C#N)c7C[C@@H]6N6C[C@@H](C)N[C@@H](C)C6)cc5)C4)C3)cc2)C[C@H](C)N1` [Example 137, 4-([(1S,2S)-6-Chloro-4-cyano-2-[(3S,5R)-3,5-dimethylpiperazin-7-yl]-2,3-dihydro-1H-inden-1-yl]oxy)-N—[(R)-1-(20-[(R)-3-([4-([(1S,2S)-6-chloro-4-cyano-2-[(3S,5R)-3,5-dimethylpiperazin-1-yl]-2,3-dihydro-1H-inden-1-yl]oxy)phenyl]sulfonamido)pyrrolidin-1-yl]-7,14-dioxo-3,18-dioxa-6,8,13,15-tetraazaicosyl)pyrrolidin-3-yl]benzenesulfonamide; bis(trifluoroacetic acid)], on NHE3 [1], the “% inhibition” value is “C (>70%)” and the pIC50 entry is reported as “C (NHE3 pIC50 > 7)”. On NHE3 [2], the “% inhibition” value is given as “C (>70%)” and the pIC50 result is “C (NHE3 pIC50 > 7)”.
Turning to `N#Cc1cc(Cl)cc2c1C[C@H](N1CCNCC1)[C@H]2Oc1ccc(S(=O)(=O)N[C@@H]2CCN(C(=O)CCCNC(=O)NCCCCNC(=O)NCCCC(=O)N3CC[C@@H](NS(=O)(=O)c4ccc(O[C@H]5c6cc(Cl)cc(C#N)c6C[C@@H]5N5CCNCC5)cc4)C3)C2)cc1` [Example 142, 4-([(1S,2S)-6-Chloro-4-cyano-2-(piperazin-1-yl)-2,3-dihydro-1H-inden-1-yl]oxy)-N—[(R)-1-(18-[(R)-3-([4-([(1S,2S)-6-chloro-4-cyano-2-(piperazin-1-yl)-2,3-dihydro-1H-inden-1-yl]oxy)phenyl]sulfonamido)pyrrolidin-1-yl]-6,13,18-trioxo-5,7,12,14-tetraazaoctadecanoyl)pyrrolidin-3-yl]benzenesulfonamide], on NHE3 [1], the “% inhibition” value is given as “C (>70%)” and the pIC50 entry is “C (NHE3 pIC50 > 7)”. On NHE3 [2], the “% inhibition” value is reported as “C (>70%)” and the pIC50 entry is listed as “C (NHE3 pIC50 > 7)”.
For `N#Cc1cc(Cl)cc2c1C[C@H](N1CCNCC1)[C@H]2Oc1ccc(S(N)(=O)=O)cc1` [Example 146, 4-([(1S,2S)-6-Chloro-4-cyano-2-(piperazin-1-yl)-2,3-dihydro-1H-inden-1-yl]oxy)benzenesulfonamide], at NHE3 [1], the “% inhibition” value is given as “C (>70%)” and the pIC50 result is reported as “C (NHE3 pIC50 > 7)”. At NHE3 [2], the “% inhibition” value was “A (NHE3 < 40%)” and the pIC50 entry was “C (NHE3 pIC50 > 7)”.
`N#Cc1cc(Cl)cc2c1C[C@H](N1CCNCC1)[C@H]2Oc1ccc(S(=O)(=O)NC2CCN(C(=O)CCCNC(=O)NCCCC(=O)N3CCC(NS(=O)(=O)c4ccc(O[C@H]5c6cc(Cl)cc(C#N)c6C[C@@H]5N5CCNCC5)cc4)CC3)CC2)cc1` [Example 154, 4-([(1S,2S)-6-Chloro-4-cyano-2-(piperazin-1-yl)-2,3-dihydro-1H-inden-1-yl]oxy)-N-[1-(4-[3-(4-[4-([4-([(1S,2S)-6-chloro-4-cyano-2-(piperazin-1-yl)-2,3-dihydro-1H-inden-1-yl]oxy)phenyl]sulfonamido)piperidin-1-yl]-4-oxobutyl)ureido]butanoyl)piperidin-4-yl]benzenesulfonamide]: on NHE3 [1], the “% inhibition” value is on record as “C (>70%)” and the pIC50 result was “C (NHE3 pIC50 > 7)”. Besides, at NHE3 [2], the “% inhibition” value is “C (>70%)” and the pIC50 entry is reported as “C (NHE3 pIC50 > 7)”.
